The values below come from patent US6787551B2, “Thiazolidinedione derivatives and pharmaceutical composition comprising the same” (Chong Kun Dang Pharmaceutical Corporation, priority 2002, dated 2004).

Data set [1] deals with differentiated 3T3-L1 cell. The experiment in a line: 2-Deoxy-D-[2,6-3H] glucose uptake assay. It is filed as cell-based. The following applies: differentiated 3T3-L1 cells, 24 h with compound, 0.5 nM insulin, concentration giving 50% of maximum enhancement of insulin activation, read-out: 2-deoxyglucose uptake (EC50 nM). As to the method:
1) 2-Deoxy-D-[2,6-3H] glucose uptake assay (in differentiated 3T3-L1 cell)
Undifferentiated adipocyte 3T3-L1 cells were inoculated in a 24-well plate and cultivated in a CO2 incubator at 37° C. To induce differentiation of the undifferentiated adipocytes, the cells were then incubated in a differentiation medium. After adding a certain concentration of each of the test compounds to the medium, the cells were again incubated for 24 hours. After removing the medium, the cells were washed with phosphate buffer, and 0.5 nM of insulin in phosphate buffer was added to the washed cells, followed by incubation for 40 minutes. Then, 0.5 uCi of 2-deoxy-D-[2,6-3H] glucose per well was again added to the cells, which were let stand for 4 minutes. Then, the cells were washed with phosphate buffer, and cell lysis buffer was added, so as to dissolve the cell membranes. The cell sample was placed into a liquid scintillation cocktail solution. The radioactivity of the sample was counted by a liquid scintillation counter.

A further data set has as its system 3T3-L1 cells. Put plainly: Triglyceride accumulation assay. The format is cell-based. The following applies: 4 days with compound, concentration giving 50% of maximum enhancement of rosiglitazone activation. How it is done:
2) Triglyceride accumulation assay (in 3T3-L1 cells)
Undifferentiated adipocyte 3T3-L1 cells were inoculated in a 24-well plate and cultivated in a CO2 incubator at 37° C. To induce differentiation of the undifferentiated adipocytes, the cells were then incubated in a differentiation medium for 48 hours. After adding a certain concentration of each of the test compounds to the differentiation medium, the cells were again incubated for 4 days. Then, the final cell sample was placed into 200 μl of 2-propanol. The amount of triglyceride in the cells were measured by Triglyceride Kit [YEONGDONG PHARMACEUTICAL CO. LTD., Korea] commercially available.

The subject of data set [2] is primary cultured rat hepatocytes. Put plainly: Cytotoxicity assay in primary cultured rat hepatocytes (neutral red). The following applies: for Safety index (TC25 nM/EC50 nM): TC25 in hepatocyte cytotoxicity assay / EC50 in triglyceride accumulation assay; for Cytotoxicity in hepatocyte (TC25 uM): primary rat hepatocytes, 24 h, neutral red, 25% toxic concentration.
Procedure: Hepatocytes isolated from rat were inoculated in a collagen-coated 24 well plate and was incubated in a CO2 incubator at 37° C. for 24 hours. Then, a certain concentration of each of the test compounds was added, and the cells were again incubated for 24 hours. The cells were then incubated in a 0.4% neutral red containing medium for 4 hours and washed once with phosphate buffer. 0.5 ml of a solution of 1% acetic acid-50% ethanol was added to the cells, which were let stand. 200 ul of the cell sample was taken and absorbance was measured at 570 nm. The cytotoxicity assay performed on hepatocytes was measured as 25% toxic concentration (TC25, uM). Then, the safety index, i.e. the TC25 value in the cytotoxicity assay in hepatocyte/the EC50 value in the triglyceride accumulation assay, was calculated.
Data set [3] concerns mice with diabetes (KK/Ay). Put plainly: Blood glucose- and blood lipid-lowering action in mice with diabetes. To be noted: male KK/Ay mice, daily oral administration for 5 days; for Blood glucose (ED25): dose reducing blood glucose by 25%; for Triglyceride (ED25): dose reducing triglyceride by 25%. The format is in vivo. How it is done:
Male mice with diabetes (KK/Ay: 10 weeks old, 5 animals/group) were housed and given free access to water and food. The animals received a daily oral administration of the test compounds for 5 days. After the last dose, a blood sample was drawn via the orbital sinus.
The plasma was analyzed for blood glucose content using the Glucose-E kit (YEONGDONG PHARMACEUTICAL CO. LTD., Korea), and for triglyceride content using the Triglyceride kit (YEONGDONG PHARMACEUTICAL CO. LTD., Korea).

Read-outs that look alike come from different tables or passages of the source.

For orientation: EC50 means the midpoint of the concentration-response curve. For `CCc1ccc(Oc2cc(N(C)CCOc3ccc(CC4SC(=O)NC4=O)cc3)ncn2)cc1` (stereo not drawn) [Ex. 28, 5-(4-[2-(N-methyl-N-(6-(4-(4-ethyl)phenoxy)pyrimidinyl)amino)ethoxy]benzyl)-2,4-thiazolidinedione], the EC50 in data set [1] worked out at 5.2 nM. In addition, in the data set on 3T3-L1 cells, the 50% effective concentration (EC50) was 2.1 nM. Also, in data set [2], the “Safety index (TC25 nM/EC50 nM)” value is recorded as 40476 and the “Cytotoxicity in hepatocyte (TC25 uM)” value is 85 µM. Further, in data set [3], the “Blood glucose (ED25)” value was 1.8 mg/kg and the “Triglyceride (ED25)” value is reported as 16.9 mg/kg.
Take `CCc1ccc(Oc2cc(N(C)CCOc3ccc(C=C4SC(=O)NC4=O)cc3)ncn2)cc1` [Ex. 9, 5-(4-[2-(N-methyl-N-(6-(4-(4-ethyl)phenoxy)pyrimidinyl)amino)ethoxy]benzylidene)-2,4-thiazolidinedione]: the EC50 in data set [1] was found to be 55.2 nM. Besides, the EC50 in the data set with 3T3-L1 cells turned out to be 29.9 nM. Also, in data set [2], the “Safety index (TC25 nM/EC50 nM)” value was 3010 and the “Cytotoxicity in hepatocyte (TC25 uM)” value was 90 µM. In data set [3], the “Blood glucose (ED25)” value is on record as 4.1 mg/kg and the “Triglyceride (ED25)” value was 29 mg/kg.
In the case of `CN(CCOc1ccc(CC2SC(=O)NC2=O)cc1)c1cc(Oc2ccc(F)cc2)ncn1` (stereo not drawn) [Ex. 23, 5-(4-[2-(N-methyl-N-(6-(4-(4-fluoro)phenoxy)pyrimidinyl)amino)ethoxy]benzyl)-2,4-thiazolidinedione], in data set [1], the 50% effective concentration (EC50) was determined as 2.4 nM. Further, the EC50 in the data set with 3T3-L1 cells stood at 0.81 nM. Besides, in data set [2], the “Safety index (TC25 nM/EC50 nM)” value is 87654 and the “Cytotoxicity in hepatocyte (TC25 uM)” value came out at 71 µM. For the same compound, in data set [3], the “Blood glucose (ED25)” value is recorded as 0.25 mg/kg and the “Triglyceride (ED25)” value is on record as 2.2 mg/kg.
`CN(CCOc1ccc(CC2SC(=O)NC2=O)cc1)c1cc(Oc2ccc(Cl)cc2)ncn1` (stereo not drawn) [Ex. 24, 5-(4-[2-(N-methyl-N-(6-(4-(4-chloro)phenoxy)pyrimidinyl)amino)ethoxy]benzyl)-2,4-thiazolidinedione]: the half-maximal effective concentration (EC50) in data set [1] was 0.2 nM. Further, the concentration giving a half-maximal response (EC50) in the data set on 3T3-L1 cells came to 0.1 nM. Also, in data set [2], the “Safety index (TC25 nM/EC50 nM)” value is recorded as 750000 and the “Cytotoxicity in hepatocyte (TC25 uM)” value was 75 µM. Further, in data set [3], the “Blood glucose (ED25)” value came to 0.18 mg/kg and the “Triglyceride (ED25)” value was 0.6 mg/kg.
For the compound `CCOc1ccc(Oc2cc(N(C)CCOc3ccc(CC4SC(=O)NC4=O)cc3)ncn2)cc1` (stereo not drawn) [Ex. 26, 5-(4-[2-(N-methyl-N-(6-(4-(4-ethoxy)phenoxy)pyrimidinyl)amino)ethoxy]benzyl)-2,4-thiazolidinedione], the EC50 in data set [1] was 14.4 nM. Further, the EC50 in the data set with 3T3-L1 cells is 7.7 nM. Further, in data set [2], the “Safety index (TC25 nM/EC50 nM)” value stood at 12338 and the “Cytotoxicity in hepatocyte (TC25 uM)” value was found to be 95 µM. Besides, in data set [3], the “Blood glucose (ED25)” value was determined as 0.8 mg/kg and the “Triglyceride (ED25)” value turned out to be 4.3 mg/kg.
In the case of `CN(CCOc1ccc(C=C2SC(=O)NC2=O)cc1)c1cc(Oc2ccccc2)ncn1` [Ex. 1], the 50% effective concentration (EC50) in data set [1] was determined as 58 nM. Further, the EC50 in the data set on 3T3-L1 cells was 38 nM. Besides, in data set [2], the “Safety index (TC25 nM/EC50 nM)” value was 2578 and the “Cytotoxicity in hepatocyte (TC25 uM)” value was 98 µM. In data set [3], the “Blood glucose (ED25)” value is 4.0 mg/kg and the “Triglyceride (ED25)” value is reported as 30 mg/kg.
For the compound `CN(CCOc1ccc(CC2SC(=O)NC2=O)cc1)c1ccccn1` (stereo not drawn) [Rosiglitazone, reference compound], the concentration giving a half-maximal response (EC50) in data set [1] (Mus musculus) amounted to 75 nM. Also, in the data set on 3T3-L1 cells (Mus musculus, 96 h), the concentration for a half-maximal effect (EC50) was 47 nM. Moreover, in data set [2], the “Safety index (TC25 nM/EC50 nM)” value was determined as 1489 and the “Cytotoxicity in hepatocyte (TC25 uM)” value came to 70 µM. In data set [3], the “Blood glucose (ED25)” value worked out at 4.1 mg/kg and the “Triglyceride (ED25)” value is listed as “More than 30 mg/kg”.
Turning to `CC(C)c1ccc(Oc2cc(N(C)CCOc3ccc(CC4SC(=O)NC4=O)cc3)ncn2)cc1` (stereo not drawn) [Ex. 30, 5-(4-[2-(N-methyl-N-(6-(4-(4-isopropyl)phenoxy)pyrimidinyl)amino)ethoxy]benzyl)-2,4-thiazolidinedione], the concentration giving a half-maximal response (EC50) in data set [1] was 13.3 nM. Besides, in the data set with 3T3-L1 cells, the EC50 was 6.5 nM. For the same compound, in data set [2], the “Safety index (TC25 nM/EC50 nM)” value was 11077 and the “Cytotoxicity in hepatocyte (TC25 uM)” value came to 72 µM. Moreover, in data set [3], the “Blood glucose (ED25)” value was determined as 2.1 mg/kg and the “Triglyceride (ED25)” value stood at 21.2 mg/kg.
Regarding `CC(C)Oc1ccc(Oc2cc(N(C)CCOc3ccc(CC4SC(=O)NC4=O)cc3)ncn2)cc1` (stereo not drawn) [Ex. 27, 5-(4-[2-(N-methyl-N-(6-(4-(4-isopropoxy)phenoxy)pyrimidinyl)amino)ethoxy]benzyl)-2,4-thiazolidinedione], in data set [1], the EC50 was 35.5 nM. Further, in the data set with 3T3-L1 cells, the EC50 amounted to 21.7 nM. In data set [2], the “Safety index (TC25 nM/EC50 nM)” value worked out at 3594 and the “Cytotoxicity in hepatocyte (TC25 uM)” value is 78 µM. Also, in data set [3], the “Blood glucose (ED25)” value was 0.8 mg/kg and the “Triglyceride (ED25)” value turned out to be 4.5 mg/kg.
“5-(4-[2-(N-methyl-N-(2-(4-(4-fluoro)phenoxy)pyridinyl)amino)ethoxy]benzyl)-2,4-thiazolidinedione [Ex. 33]”: the 50% effective concentration (EC50) in data set [1] is 8.9 nM. In the data set with 3T3-L1 cells, the half-maximal effective concentration (EC50) was determined as 5.6 nM. In data set [2], the “Safety index (TC25 nM/EC50 nM)” value is recorded as 17679 and the “Cytotoxicity in hepatocyte (TC25 uM)” value turned out to be 99 µM. Besides, in data set [3], the “Blood glucose (ED25)” value is listed as 1.1 mg/kg and the “Triglyceride (ED25)” value was 6.5 mg/kg.
In the case of `CN(CCOc1ccc(CC2SC(=O)NC2=O)cc1)c1cc(Oc2ccccc2)ncn1` (stereo not drawn) [Ex. 20, 5-(4-[2-(N-methyl-N-(6-(4-phenoxy)pyrimidinyl)amino)ethoxy]benzyl)-2,4-thiazolidinedione], the EC50 in data set [1] came out at 7.5 nM. Moreover, the half-maximal effective concentration (EC50) in the data set with 3T3-L1 cells came out at 2.7 nM. Besides, in data set [2], the “Safety index (TC25 nM/EC50 nM)” value is recorded as 29630 and the “Cytotoxicity in hepatocyte (TC25 uM)” value amounted to 80 µM. Besides, in data set [3], the “Blood glucose (ED25)” value is given as 0.22 mg/kg and the “Triglyceride (ED25)” value is reported as 1.2 mg/kg.
Take `CN(CCOc1ccc(CC2SC(=O)NC2=O)cc1)c1cc(Oc2ccc(-c3ccccc3)cc2)ncn1` (stereo not drawn) [Ex. 31]: the EC50 in data set [1] amounted to 20.5 nM. Besides, the EC50 in the data set on 3T3-L1 cells stood at 12.5 nM. Moreover, in data set [2], the “Safety index (TC25 nM/EC50 nM)” value amounted to 5840 and the “Cytotoxicity in hepatocyte (TC25 uM)” value was determined as 73 µM. Moreover, in data set [3], the “Blood glucose (ED25)” value is reported as 3.2 mg/kg and the “Triglyceride (ED25)” value is listed as 12.6 mg/kg.
Regarding `CN(CCOc1ccc(CC2SC(=O)NC2=O)cc1)c1cc(Oc2ccccc2)ccn1` (stereo not drawn) [Ex. 22, 5-(4-[2-(N-methyl-N-(2-(4-phenoxy)pyridinyl)amino)ethoxy]benzyl)-2,4-thiazolidinedione], in data set [1], the 50% effective concentration (EC50) is 1.8 nM. For the same compound, the EC50 in the data set on 3T3-L1 cells was found to be 0.54 nM. For the same compound, in data set [2], the “Safety index (TC25 nM/EC50 nM)” value worked out at 137037 and the “Cytotoxicity in hepatocyte (TC25 uM)” value is 74 µM. Besides, in data set [3], the “Blood glucose (ED25)” value is 0.7 mg/kg and the “Triglyceride (ED25)” value was 3.9 mg/kg.
As for `COc1ccc(Oc2cc(N(C)CCOc3ccc(CC4SC(=O)NC4=O)cc3)ncn2)cc1` (stereo not drawn) [Ex. 25, 5-(4-[2-(N-methyl-N-(6-(4-(4-methoxy)phenoxy)pyrimidinyl)amino)ethoxy]benzyl)-2,4-thiazolidinedione], the concentration giving a half-maximal response (EC50) in data set [1] was 0.2 nM. Also, the EC50 with 3T3-L1 cells is 0.11 nM. Moreover, in data set [2], the “Safety index (TC25 nM/EC50 nM)” value worked out at 727272 and the “Cytotoxicity in hepatocyte (TC25 uM)” value worked out at 80 µM. For the same compound, in data set [3], the “Blood glucose (ED25)” value stood at 0.15 mg/kg and the “Triglyceride (ED25)” value is 0.5 mg/kg.
With “5-(4-[2-(N-methyl-N-2-(4-(4-isopropyl)pyridinyl)amino)ethoxy]benzyl)-2,4-thiazolidinedione [Ex. 36]”, the EC50 in data set [1] amounted to 20.9 nM. For the same compound, the EC50 in the data set on 3T3-L1 cells came to 16.3 nM. In data set [2], the “Safety index (TC25 nM/EC50 nM)” value was 4663 and the “Cytotoxicity in hepatocyte (TC25 uM)” value turned out to be 76 µM. Besides, in data set [3], the “Blood glucose (ED25)” value amounted to 3.5 mg/kg and the “Triglyceride (ED25)” value is 14.9 mg/kg.
Turning to `COc1ccc(Oc2ccnc(N(C)CCOc3ccc(CC4SC(=O)NC4=O)cc3)c2)cc1` (stereo not drawn) [Ex. 35, 5-(4-[2-(N-methyl-N-(2-(4-(4-methoxy)phenoxy)pyridinyl)amino)ethoxy]benzyl)-2,4-thiazolidinedione], in data set [1], the EC50 amounted to 19.3 nM. The concentration for a half-maximal effect (EC50) with 3T3-L1 cells amounted to 9.6 nM. In data set [2], the “Safety index (TC25 nM/EC50 nM)” value is given as 10000 and the “Cytotoxicity in hepatocyte (TC25 uM)” value was 96 µM. Further, in data set [3], the “Blood glucose (ED25)” value amounted to 2.5 mg/kg and the “Triglyceride (ED25)” value is recorded as 9.1 mg/kg.
